We go through 33 compounds from US9518015B2, “EP1 receptor ligands” (LABORATORIOS DEL DR. ESTEVE, S.A., priority 2011, dated 2016).

Molecules are shown by their SMILES. Where only a bound is given, the exact number is not on record here.

For one test, the target named is T1, human EP1 receptor (Homo sapiens, UniProt P34995).
T1 sequence (P34995 1-402): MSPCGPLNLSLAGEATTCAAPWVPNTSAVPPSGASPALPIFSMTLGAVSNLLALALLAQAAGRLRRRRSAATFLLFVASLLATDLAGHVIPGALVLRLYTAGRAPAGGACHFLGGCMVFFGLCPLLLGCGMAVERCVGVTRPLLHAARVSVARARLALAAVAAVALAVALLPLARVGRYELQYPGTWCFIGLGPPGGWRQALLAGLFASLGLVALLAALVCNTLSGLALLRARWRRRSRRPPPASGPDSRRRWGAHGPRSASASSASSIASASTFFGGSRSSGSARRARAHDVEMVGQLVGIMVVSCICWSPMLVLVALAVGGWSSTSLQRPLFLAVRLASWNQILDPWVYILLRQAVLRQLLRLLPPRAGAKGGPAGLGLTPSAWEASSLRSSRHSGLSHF
Put plainly: Test 2: Measurement of IP1 responses by HTRF, suspended HEK-293 cells stably expressing human EP1 receptors, PGE2 30 nM. Format: cell-based. On the set-up: expressed in transfected cells. The settings on record: HEK293, at 10 μM, read-out: Results of Test 2 (Functional assay), % inh. How it is done: Test 2: Measurement of IP1 responses by Homogeneous Time Resolved Fluorescence
IP1 measurements on HEK-293 cells that stably expressed human EP1 receptors were performed by using a system based on Homogeneous Time Resolved Fluorescense (HTRF) (Gabriel et al., 2003). This technology allows the direct measurement of IP1 in living cells. The principle of this assay is based on competition between IP1 produced by cells and IP1-d2 conjugate for the binding with monoclonal anti-IP1-cryptate conjugate. The HTRF IP1 kit from CisBio was used according to the manufacturer's directions. The experimental procedure was performed as stated below.
Suspended cells (30,000 cells per well) were added to 96-well culture plates in 40 μl of stimulation buffer (supplied by the kit). Compounds were then added in 20 μl of stimulation buffer and incubated at 37° C. for 15 minutes followed by 10 μl of PGE2 to a final concentration of […]. After 90 minutes at 37° C., the reaction was stopped lysing the cells with a mixture of 15 μl of cryptate and 15 μl of IP1-d2 prepared in the lysis buffer supplied by the manufacturer. Plates were incubated for an additional hour at room temperature and read at 665 nm/620 nm using an UltraEvolution Plate reader (Tecan).
Antagonist percentage inhibition was calculated relating compounds activity to the 0% inhibition of the wells incubated with 10 nM PGE2 alone and 100% inhibition of the wells incubated with 10 nM PGE2 plus 1 μM of the reference antagonist.
As for `O=C(O)c1cccc2c1ccn2Cc1cc(F)ccc1OCc1ccc(F)cc1F` [Example 53, 1-(2-((2,4-difluorobenzyl)oxy)-5-fluorobenzyl)-1H-indole-4-carboxylic acid], the inhibition at 10 µM was more than 75%.

In the case of `O=C(O)c1cccc2c1ccn2Cc1cc(Cl)ccc1OCc1c(F)cc(Br)cc1F` [Example 58, 1-(2-((4-bromo-2,6-difluorobenzyl)oxy)-5-chlorobenzyl)-1H-indole-4-carboxylic acid], the inhibition at 10 µM was more than 75%. On the same count and under the same terms, then `O=C(O)c1cccc2c1ccn2Cc1cc(Cl)cc(Cl)c1OCc1ccc(Cl)cc1F` [Example 59, 1-(3,5-dichloro-2-((4-chloro-2-fluorobenzyl)oxy)benzyl)-1H-indole-4-carboxylic acid], with 45 to 75%.

`O=C(O)c1cccc2c1ccn2Cc1cc(Br)ccc1OCc1c(F)cc(Cl)cc1F` [Example 60, 1-(5-bromo-2-((4-chloro-2,6-difluorobenzyl)oxy)benzyl)-1H-indole-4-carboxylic acid]: the inhibition at 10 µM was more than 75%.

On to `O=C(O)c1cccc2c1ccn2Cc1ncccc1OCc1ccc(Cl)cc1F` [Example 61, 1-((3-((4-chloro-2-fluorobenzyl)oxy)pyridin-2-yl)methyl)-1H-indole-4-carboxylic acid], for which the inhibition at 10 µM was in the range of 45 to 75%. Take `O=C(O)c1cccc2c1ccn2Cc1cc(Cl)ccc1CCc1ccc(Cl)cc1F` [Example 63, 1-(5-chloro-2-(4-chloro-2-fluorophenethyl)benzyl)-1H-indole-4-carboxylic acid]: the inhibition at 10 µM was more than 75%. As to `O=C(O)c1ccc2c(ccn2Cc2cc(Cl)ccc2OCC2CC2)c1` [Example 64, 1-(5-chloro-2-(cyclopropylmethoxy)benzyl)-1H-indole-5-carboxylic acid], the inhibition at 10 µM was more than 75%. In the case of `O=C(O)c1ccc2c(ccn2Cc2cc(F)ccc2OCc2cc(F)c(F)cc2F)c1` [Example 65], the inhibition at 10 µM was more than 75%. Consider `O=C(O)c1ccc2c(ccn2Cc2cc(F)ccc2OCc2ccc(F)cc2Cl)c1` [Example 66, 1-(2-((2-chloro-4-fluorobenzyl)oxy)-5-fluorobenzyl)-1H-indole-5-carboxylic acid], for which the inhibition at 10 µM was more than 75%.

For the compound `O=C(O)c1ccc2c(ccn2Cc2cc(Cl)ccc2OCc2ccc(F)cc2C(F)(F)F)c1` [Example 67], the inhibition at 10 µM was 45 to 75%. On to `O=C(O)c1ccc2c(ccn2Cc2cc(Br)ccc2OCc2ccc(F)cc2Cl)c1` [Example 70, 1-(5-bromo-2-((2-chloro-4-fluorobenzyl)oxy)benzyl)-1H-indole-5-carboxylic acid], for which the inhibition at 10 µM was more than 75%. As to `O=C(O)c1ccc2c(ccn2Cc2cc(F)ccc2OCc2cc(F)c(F)c(F)c2)c1` [Example 71, 1-(5-fluoro-2-((3,4,5-trifluorobenzyl)oxy)benzyl)-1H-indole-5-carboxylic acid], the inhibition at 10 µM is 45 to 75%. With `O=C(O)c1ccc2c(ccn2Cc2cc(F)ccc2OCc2cc(F)c(F)cc2Cl)c1` [Example 72, 1-(2-((2-chloro-4,5-difluorobenzyl)oxy)-5-fluorobenzyl)-1H-indole-5-carboxylic acid], the inhibition at 10 µM was more than 75%.

Consider `O=C(O)c1ccc2c(ccn2Cc2cc(F)ccc2OCc2cc(F)ccc2Cl)c1` [Example 73, 1-(2-((2-chloro-5-fluorobenzyl)oxy)-5-fluorobenzyl)-1H-indole-5-carboxylic acid], for which the inhibition at 10 µM is 45 to 75%. Still for that read-out and setting: next, `O=C(O)c1ccc2c(ccn2Cc2cc(Br)ccc2OCc2ccc(F)cc2F)c1` [Example 74, 1-(5-bromo-2-((2,4-difluorobenzyl)oxy)benzyl)-1H-indole-5-carboxylic acid]: 45 to 75%; `O=C(O)c1ccc2c(ccn2Cc2cc(Cl)ccc2OCc2ccc(Cl)cc2F)c1` [Example 76, 1-(5-chloro-2-((4-chloro-2-fluorobenzyl)oxy)benzyl)-1H-indole-5-carboxylic acid]: 45 to 75%; `O=C(O)c1ccc2c(ccn2Cc2cc(Cl)ccc2OCc2ccc(F)cc2F)c1` [Example 78]: more than 75%.

Regarding `O=C(O)/C=C/c1cccc2c1ccn2Cc1cc(C(F)(F)F)ccc1OCc1ccccc1` [Example 79, (E)-3-(1-(2-(benzyloxy)-5-(trifluoromethyl)benzyl)-1H-indol-4-yl)acrylic acid], the inhibition at 10 µM was more than 75%. Same read-out and setting: then `O=C(O)/C=C/c1cccc2c1ccn2Cc1cc(Br)ccc1OCC1CC1` [Example 80, (E)-3-(1-(5-bromo-2-(cyclopropylmethoxy)benzyl)-1H-indol-4-yl)acrylic acid], with more than 75%. As to `O=C(O)/C=C/c1cccc2c1ccn2Cc1cc(Cl)ccc1OCC1CC1` [Example 81, (E)-3-(1-(5-chloro-2-(cyclopropylmethoxy)benzyl)-1H-indol-4-yl)acrylic acid], the inhibition at 10 µM is more than 75%. In the case of `O=C(O)/C=C/c1cccc2c1ccn2Cc1cc(Cl)ccc1OCc1ccc(F)cc1F` [Example 82, (E)-3-(1-(5-chloro-2-((2,4-difluorobenzyl)oxy)benzyl)-1H-indol-4-yl)acrylic acid], the inhibition at 10 µM is more than 75%.

Consider `O=C(O)/C=C/c1cccc2c1ccn2Cc1cc(Cl)ccc1OCc1ccc(Cl)cc1F` [Example 83, (E)-3-(1-(5-chloro-2-((4-chloro-2-fluorobenzyl)oxy)benzyl)-1H-indol-4-yl)acrylic acid], for which the inhibition at 10 µM was more than 75%.

Regarding `O=C(O)COc1cccc2c1ccn2Cc1cc(C(F)(F)F)ccc1OCc1ccc(Cl)cc1F` [Example 84, 2-((1-(2-((4-chloro-2-fluorobenzyl)oxy)-5-(trifluoromethyl)benzyl)-1H-indol-4-yl)oxy)acetic acid], the inhibition at 10 µM is more than 75%.

Take `O=C(O)COc1cccc2c1ccn2Cc1cc(Cl)ccc1OCC1CC1` [Example 85, 2-((1-(5-chloro-2-(cyclopropylmethoxy)benzyl)-1H-indol-4-yl)oxy)acetic acid]: the inhibition at 10 µM is more than 75%. With `O=C(O)c1ccc2ccn(Cc3cc(Br)ccc3OCc3ccccc3)c2c1` [Example 87, 1-(2-(benzyloxy)-5-bromobenzyl)-1H-indole-6-carboxylic acid], the inhibition at 10 µM is more than 75%. On to `O=C(O)c1ccnc2c1ccn2Cc1cc(Cl)ccc1OCc1ccc(Cl)cc1F` [Example 90, 1-(5-chloro-2-((4-chloro-2-fluorobenzyl)oxy)benzyl) -1H-pyrrolo[2,3-b]pyridine-4-carboxylic acid], for which the inhibition at 10 µM is more than 75%.

As for `O=C(O)c1cccc2c1ncn2Cc1cc(Cl)ccc1OCc1ccc(Cl)cc1F` [Example 92, 1-(5-chloro-2-((4-chloro-2-fluorobenzyl)oxy)benzyl) -1H-benzo[d]imidazole-4-carboxylic acid], the inhibition at 10 µM lay in the range of 45 to 75%.

Consider `O=C(O)c1cccc2c1CCN2Cc1cc(Cl)ccc1OCc1ccc(Cl)cc1F` [Example 93, 1-(5-chloro-2-((4-chloro-2-fluorobenzyl)oxy)benzyl)indoline-4-carboxylic acid], for which the inhibition at 10 µM was more than 75%.

As to `O=C(O)c1cccc2c1CCCN2Cc1cc(Cl)ccc1OCc1ccc(Cl)cc1F` [Example 94, 1-(5-chloro-2-((4-chloro-2-fluorobenzyl)oxy)benzyl) -1,2,3,4-tetrahydroquinoline-5-carboxylic acid], the inhibition at 10 µM is more than 75%. With `O=C(O)c1cccc2c1CCCN2Cc1cc(Cl)ccc1OCc1ccc(F)cc1F` [Example 95], the inhibition at 10 µM was more than 75%. The same measure, in the same setting: next, `O=C(O)c1ccc(F)c2c1ccn2Cc1cc(Cl)ccc1OCc1ccc(F)cc1F` [Example 100, sodium 1-(5-chloro-2-((2,4-difluorobenzyl)oxy)benzyl)-7-fluoro-1H-indole-4-carboxylate]: more than 75%.

The same test, now with this note: at 10 μM.
On to `O=C(O)CCc1cccc2c1ccn2Cc1cc(Cl)ccc1OCc1ccc(Cl)cc1F` [Example 62, 3-(1-(5-chloro-2-((4-chloro-2-fluorobenzyl)oxy)benzyl)-1H-indol-4-yl)propanoic acid], for which the “Results of Test 2 (Functional assay), % inh” value is “$ (% inh > 75)”. Consider `O=C(O)CCc1cccc2c1ccn2Cc1cc(Cl)ccc1OCc1ccc(Cl)cc1F` [Example 89, 3-(1-(5-chloro-2-((4-chloro-2-fluorobenzyl)oxy)benzyl)-1H-indol-4-yl)propanoic acid], for which the “Results of Test 2 (Functional assay), % inh” value is given as “$$ (45 < % inh < 75)”.
